Results on five compounds are retold here after patent US5708008A, “5-Substituted-3-(1,2,3,6-tetrahydropyridin-4-yl)-and 3-(piperidin-4-yl)-1H-indoles: new 5-HT1F agonists” (Eli Lilly and Company, priority 1996, dated 1998).

Where two headings read alike, the source gives them in different places.

The subject of data set [1] is protein extravasation induced by stimulation of the trigeminal ganglion. Put plainly: Inhibition of neuronal protein extravasation in dura after electrical stimulation of trigeminal ganglion. The format is in vivo, rat or guinea pig.
The test system of data set [2] is cephalic vascular smooth muscle. The settings on record: literature; cited from earlier work.
Another data set has as its system migraine. The settings on record: literature; cited from earlier work.
The conditions of data set [3]: literature; cited from earlier work.
The conditions of data set [4]: cited from earlier work.
Where [5] appears, read: Rattus norvegicus, iv, read-out: Inhibition of Protein Extravasation, i.v. ID50.

For `Oc1ccc2[nH]cc(C3CCNCC3)c2c1` [Compound III], the ED50 in data set [1] (setting [5]) amounted to 8.9e-06 µmol/kg.
Turning to `Cn1cc(CCN2CCC(c3c[nH]c4ccc(F)cc34)CC2)cn1` [Compound II], the ED50 in data set [1] (Rattus norvegicus, iv; read-out: Inhibition of Protein Extravasation, i.v. ID50) worked out at 8.6e-07 µmol/kg.
As to `CCN(CC)C1CCc2cccc(Cl)c2C1` (centres unmarked) [Compound IV], the ED50 in data set [1] (setting [5]) is 0.00012 µmol/kg.
With `CNS(=O)(=O)Cc1ccc2[nH]cc(CCN(C)C)c2c1` [Compound I], in data set [1] (setting [5]), the ED50 was determined as 2.6e-05 µmol/kg. Moreover, the “contraction of cephalic vascular smooth muscle” value in data set [2] was “contract cephalic vascular smooth muscle”. In addition, the “efficacy in treatment of migraine” value with migraine is “effective in the treatment of migraine”. The “crossing of the blood-brain barrier” value in data set [3] is “does not cross the blood-brain barrier”. In addition, the side effects entry in data set [4] (due to affinity for a number of serotonin receptor subtypes) was “undesirable side effects, particularly vasoconstriction”. For the same compound, in data set [4] (in vivo), the bioavailability result is reported as “low bioavailability” and the duration of action result is “relatively short duration of action”.
As for `CN(C)C1CCc2[nH]c3ccc(O)cc3c2C1` (centres unmarked) [Compound V], in data set [1] (setting [5]), the ED50 came to 8.7e-06 µmol/kg.
